Legend:
[1] = LNP size and polydispersity index (PDI) by dynamic light scattering; format: physicochemical; settings: for Size: in nm (unit assumed)
Summary of the method: (§1)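 Dynamic light scattering and zeta potential measurements were run on PBS-dialyzed LNPs, which had been formed by microfluidic mixing at 12 ml/min with final lipid at 1.5 mM to 6 mM. RNA content and percent encapsulation were determined by Ribogreen with and without Triton X-100.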

[2] = LNP zeta potential (Zetasizer); format: physicochemical
Summary of the method: as §1

[3] = RNA encapsulation efficacy by Quant-IT Ribogreen kit; format: physicochemical; settings: for Encapsulation Efficiency %: LNP with cirRNA (SEQ ID NO: 1); for Encapsulation Efficiency: LNP with mRNA (SEQ ID NO: 2)
Summary of the method: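 Encapsulation efficacy came from Ribogreen fluorescence of LNPs compared with Triton X-100-lysed LNPs. The particles carried luciferase-encoding circular or linear RNA at an ionizable lipid:ribonucleotide ratio of 15 or 6.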

Hep G2 cells [4] = assay: In vitro expression of firefly-luciferase, Hep G2; format: cell-based
Summary of the method: (§2)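 Transfection used 100 ng/mL luciferase-encoding RNA-LNPs; activity in lysates was determined at 72 h.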

RAW 264.7 cells [5] = assay: In vitro expression of firefly-luciferase, RAW 264.7; format: cell-based
Summary of the method: as §2

Hep G2 cells [6] = assay: In vitro toxicity (CellTiter-Glo cell viability), Hep G2; format: cell-based;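 further: percent of untreated cells luminescence signal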
Summary of the method: (§3)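 Toxicity of RNA-LNPs (1 μg/mL) is reported as cell viability, calculated from CellTiter-Glo luminescence measured at 72 hours after transfection.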

RAW 264.7 cells [7] = assay: In vitro toxicity (CellTiter-Glo cell viability), RAW 264.7; format: cell-based;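 further: percent of untreated cells luminescence signal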
Summary of the method: as §3

BALB/C mice [8] = assay: In vivo expression, whole-body luminescence (IVIS)
Description: 6-8 week old, female BALB/C mice were injected with 0.05 mg*kg-1 of RNA-LNPs encoding for firefly-luciferase by intravenous injection. At 6 hours post injection, animals were intraperitoneally injected with 15 mg/ml of Luciferin substrate and whole-body luminescence was determined by a bioluminescent in vivo imaging system (IVIS).

MCP-I = MCP-I cytokine elevation in serum; format: in vivo; settings: cirRNA (SEQ ID NO: 1) LNPs, mice
Description: 6-8 week old, female BALB/C mice were injected with 0.5 mg*kg-1 of RNA LNPs by intravenous injection. At 2 and 24 hours post injection, animals were bled and sera concentrations of MCP-I were determined by an immunoassay (Luminex).

[9] = test system: Alanine Aminotransferase (ALT); assay: Liver enzyme elevation in serum, ALT; format: in vivo; settings: cirRNA (SEQ ID NO: 1) LNPs, BALB/C mice, intravenous 0.5 MPK
Description: (§4) 6-8 week old, female BALB/C mice were injected with 0.5 mg*kg-1 of RNA LNPs by intravenous injection. At 2 and 24 hours post injection, animals were bled and sera concentrations of Alanine Aminotransferase (ALT) and Aspartate Aminotransferase (AST) were determined by a blood chemistry analyzer.

[10] = test system: Aspartate Aminotransferase (AST); assay: Liver enzyme elevation in serum, AST; format: in vivo; settings: cirRNA (SEQ ID NO: 1) LNPs, BALB/C mice, intravenous 0.5 MPK
Description: as §4

BALB/C mice [11] = assay: Local tolerance determination by footpad injection; format: in vivo; settings: cirRNA (SEQ ID NO: 1) LNP, 0.175 mg*kg-1 subcutaneous into the footpad, 24 hours post minus prior
Description: 6-8 week old, female BALB/C mice were injected with 0.175 mg*kg-1 RNA LNPs by subcutaneous injection into the footpad. Prior to, and 24 hours post injections, injected footpad thickness was determined by a caliper.

[12] = cirRNA (SEQ ID NO: 1) LNPs, firefly-luciferase luminescence, Hep G2 cells
[13] = mRNA (SEQ ID NO: 2) LNP, 100 ng/mL, 72 hours post transfection, luciferase activity
[14] = cirRNA (SEQ ID NO: 1) LNPs, firefly-luciferase luminescence, RAW 264.7 cells
[15] = cirRNA (SEQ ID NO: 1) LNPs, Hep G2 cells
[16] = mRNA (SEQ ID NO: 2) LNP, 1 μg/mL, 72 hours post transfection
[17] = cirRNA (SEQ ID NO: 1) LNPs, RAW 264.7 cells
[18] = cirRNA (SEQ ID NO: 1) LNPs, BALB/C mice
[19] = mRNA (SEQ ID NO: 2) LNP, 0.05 mg*kg-1 intravenous, 6 hours post injection

Structure (SMILES) | PDI ([1]; LNP with cirRNA (SEQ ID NO: 1)) | Size ([1]; LNP with cirRNA (SEQ ID NO: 1)) | PDI ([1]; LNP with mRNA (SEQ ID NO: 2)) | Size ([1]; LNP with mRNA (SEQ ID NO: 2)) | Zeta (mV) ([2]; LNP with cirRNA (SEQ ID NO: 1)) | Zeta (mV) ([2]; LNP with mRNA (SEQ ID NO: 2)) | Encapsulation Efficiency % [3] [%] | Encapsulation Efficiency [3] [%] | In vitro Expression HepG2 (Hep G2 cells [4]; [12]) | In vitro Expression HepG2 (Hep G2 cells [4]; [13]) | In vitro Expression RAW (RAW 264.7 cells [5]; [14]) | In vitro Expression RAW (RAW 264.7 cells [5]; [13]) | In vitro Viability HepG2 (Hep G2 cells [6]; [15]) [%] | In vitro Viability HepG2 (Hep G2 cells [6]; [16]) [%] | In vitro Viability RAW (RAW 264.7 cells [7]; [17]) [%] | In vitro Viability RAW (RAW 264.7 cells [7]; [16]) [%] | In vivo Expression (Whole Body) (BALB/C mice [8]; [18]) | In vivo Expression (Whole Body) (BALB/C mice [8]; [19]) | MCP-I in Sera 2 hours After 0.5 MPK Injection (MCP-I) [pg/mL] | MCP-I in Sera 24 hours After 0.5 MPK Injection (MCP-I) [pg/mL] | also measured
CCCCCCCCC(CCCCCC)C(=O)OCCCCCCCCN(CCCCCCCCOC(=O)C(CCCCCC)CCCCCCCC)CCOC(=O)NCCN(C)C (stereo not shown) [Lipid 6, 10-(8-((2-hexyldecanoyl)oxy)octyl)-2-methyl-6-oxo-7-oxa-2,5,10-triazaoctadecan-18-yl 2-hexyldecanoate] | 0.06 | 87.2 | 0.03302 | 106.5 | −2.24 | 4.201 | 96 | 93.16 | 1.82E+08 | 2.28E+08 | 1.11E+07 | 1.21E+07 | 89 | 113 | 100 | 77 | 1.21E+09 | 1.91E+09 | 7009.50 | 1653.42 | ALT in Sera (IU/L) 2 hours After 0.5 MPK Injection [9]: 99.33 IU/L; ALT in Sera (IU/L) 24 hours After 0.5 MPK Injection [9]: 181.67 IU/L; AST in Sera (IU/L) 2 hours After 0.5 MPK Injection [10]: 316.00 IU/L; AST in Sera (IU/L) 24 hours After 0.5 MPK Injection [10]: 411.00 IU/L; Footpad Thickness (24 h−0 h, mm) (BALB/C mice [11]): 0.44 mm
CCCCCCCCC(CCCCCC)C(=O)OCCCCCCCCN(CCCCCCCCCCC(=O)OCCCCCC)CCOC(=O)NCCN(C)C (stereo not shown) [Lipid 43, hexyl 10-(8-((2-hexyldecanoyl)oxy)octyl)-2-methyl-6-oxo-7-oxa-2,5,10-triazahenicosan-21-oate] | 0.04 | 91.2 | 0.09046 | 67.1 | 1.26 | 12.6 | 95 | 88 | 1.75E+04 | 1.33E+06 | 1.10E+05 | 9.60E+04 | 97 | 97 | 97 | 88 | 6.22E+08 | 1.98E+08 | 5561.83 | 17.57 | ALT in Sera (IU/L) 2 hours After 0.5 MPK Injection [9]: 57.07 IU/L; ALT in Sera (IU/L) 24 hours After 0.5 MPK Injection [9]: 41.53 IU/L; AST in Sera (IU/L) 2 hours After 0.5 MPK Injection [10]: 135.60 IU/L; AST in Sera (IU/L) 24 hours After 0.5 MPK Injection [10]: 88.97 IU/L; Footpad Thickness (24 h−0 h, mm) (BALB/C mice [11]): 0.33 mm
CCCCCCCCCCC(CCCCCCCC)COC(=O)CCCCCN(CCCCCCCCOC(=O)C(CCCCCC)CCCCCCCC)CCOC(=O)NCCN(C)C (stereo not shown) [Lipid 51, 2-octyldodecyl 10-(8-((2-hexyldecanoyl)oxy)octyl)-2-methyl-6-oxo-7-oxa-2,5,10-triazahexadecan-16-oate] | 0.04 | 89.19 | 0.1368 | 79.21 | −0.71 | 3.197 | 97 | 89 | 9.85E+05 | 4.66E+07 | 8.74E+06 | 2.63E+06 | 88 | 83 | 104 | 80 | 6.85E+08 | 1.78E+09 | 3296.20 | 562.40 | ALT in Sera (IU/L) 2 hours After 0.5 MPK Injection [9]: 71.07 IU/L; ALT in Sera (IU/L) 24 hours After 0.5 MPK Injection [9]: 45.50 IU/L; AST in Sera (IU/L) 2 hours After 0.5 MPK Injection [10]: 193.77 IU/L; AST in Sera (IU/L) 24 hours After 0.5 MPK Injection [10]: 94.73 IU/L; Footpad Thickness (24 h−0 h, mm) (BALB/C mice [11]): 1.11 mm
CCCCC/C=C\C/C=C\CCCCCCCCN(CCCCCCCC/C=C\C/C=C\CCCCC)CCOC(=O)CCCN(C)C [Lipid A, reference compound] | 0.2901 | 145.2 | 0.2719 | 118 | 1.916 | 10.76 | 74 | 83.95 | 1.90E+06 | 3.08E+07 | – | 5.86E+06 | – | 108 | – | 96 | – | 2.13E+08 | – | – | –
CCCCC/C=C\C/C=C\CCCCCCCCN(CCCCCCCC/C=C\C/C=C\CCCCC)CCOC(=O)[C@@H](N)Cc1c[nH]cn1 [Lipid B, reference compound] | 0.2623 | 93.61 | 0.2472 | 80.28 | 3.811 | 0.02157 | 88 | 86.87 | 8.71E+05 | 4.21E+05 | – | 1.32E+05 | – | 97 | – | 92 | – | 3.42E+08 | – | – | –
